# Test results reported in a melting point compilation (Tetko et al.; mined from patent text by program, amines drawn as free bases though some values may be those of a salt).
row,SMILES,melting point
1,CCOC(=O)c1c(NC)c(N=O)c2ccccn12,156 to 157 °C
2,CC1(C)CN(C2CC3(C)C(CCC4C5CCC(C(=O)CSC#N)C5(C)CC(=O)C43)CC2O)CCO1 (centres undefined),197 to 198 °C
3,CN(C)Cc1ccc(CSCCNC2=NS(=O)C(S(C)(=O)=O)=C2N)o1 (centres undefined),134 to 137 °C
4,CC(C)OC(=O)c1nc(-c2ccc(=O)[nH]c2)c(-c2ccccc2)nc1N,250 to 256 °C
5,CCOC(=O)N1CCCC(NC(=O)c2ccc(Cl)c(Cl)c2)C12CCCCC2 (centres undefined),74 to 77 °C
6,COCCC(=O)N[C@H]1CC[C@H](CCN2CCN(c3nccc4ccoc34)CC2)CC1,146 °C
7,COc1cc(F)ccc1CCN1c2nc(-c3ccncc3)cc(=O)n2CCC1(C)C,217 to 219 °C
8,O=C1c2c(Cl)cccc2-n2cnc(-c3noc(C4CC4)n3)c2[C@@H]2CCCN12,236 to 237 °C
9,CN(C)C1CCN(C(=O)c2ccc(-c3[nH]nc4c3C(=O)c3c(NC(=O)NN5CCOCC5)cccc3-4)s2)C1 (centres undefined),216 to 217 °C
10,CN(C)c1ccncc1CCCOc1ccc(OCCCC(=O)O)cc1,106 to 108 °C
11,CCn1nc(OCCCc2ccc(OCCOC)cc2OCc2ccc(Cl)cc2Cl)cc1CCC(=O)O,114 to 116 °C
12,Cn1cc(-c2cccc(C(F)(F)F)c2)c(=O)n1-c1cccc(C(F)(F)F)c1,110 to 111 °C
13,CCC(CC)Oc1cc(C)nc2c1NC(=O)CN2c1c(C)cc(C)cc1C,179 to 181 °C
14,COc1ccc(-c2c3c(cc4ccc(OC)cc24)C(=O)NC3)cc1,290 to 292 °C
15,CCCc1c(O)ccc2oc(Cc3ccc(O)cc3)c(C)c12,138 to 142 °C
16,CCCCCc1ccc(-c2ccc(F)cc2)nc1,27 °C
17,COc1ccnc2c(S(=O)c3nc4ccccc4[nH]3)cccc12 (centres undefined),178 to 179 °C
18,COc1ccc(C=C2SC(N3CCOCC3)=NC2=O)cc1-c1ccc(O)c(C23CC4CC(CC(C4)C2)C3)c1,339 to 343 °C
19,CCOC(=O)C1NCc2[nH]c3cccc(OCc4ccccc4)c3c2C1COC (centres undefined),170 to 171 °C
20,CC(C)(C)OC(=O)c1ncn2c1COc1ccccc1-2,119 to 123 °C
21,Cc1cccc2c1C=Cc1ccccc1C2(O)CCCN(C)C (centres undefined),141 to 143 °C
22,Cc1cc(-n2cnn(Cc3ccc(S(C)(=O)=O)cc3)c2=O)sc1C(=O)NCc1cccnc1,208 to 210 °C
23,NC(=O)c1sc2ncnc(-c3cc4c(c(OCc5ccccc5)c3)CCO4)c2c1N,239 °C
24,CC(COc1ccc(CC2SC(=O)N(C(c3ccccc3)(c3ccccc3)c3ccccc3)C2=O)cc1)NC(=O)OC(C)(C)C (centres undefined),153 to 157 °C
25,Cc1ccc(S(=O)(=O)OCC2Cc3c[nH]c4cccc(c34)C(=O)N2)cc1 (centres undefined),175 to 178 °C

row,SMILES,melting point
1,COc1ccc2c(c1OCc1ccccc1)CCCC2=O,64 °C
2,CC(C)CCC(=O)N1CCN(C(=O)OC(C)(C)C)CC1,88 to 90.2 °C
3,COc1ccc(-c2cc(=O)n(CC3CCCC3)nc2-c2ccc(OC)cc2)cc1,130 to 131 °C
4,CCOCc1nc2c(N)nc(C)c(C)c2n1CCCNC(=O)OCC,148 to 150 °C
5,CC(C)OCCCNC(=O)c1n[nH]cc1NC(=O)c1ccccn1,152 to 153 °C
6,CCN(c1nc(C)cc(C(=O)N2CCN(C)CC2)n1)c1ccc(C(C)C)cc1Br,81 to 82 °C
7,CCCCC12CCC3C4=C(CCC3C1CCC2=O)CC(OC)=CC4 (centres undefined),124 to 128 °C
8,CCCc1c(OCCc2cc3cc(CC(=O)O)ccc3[nH]2)ccc2c(-c3ccccc3)coc12,129 to 130 °C
9,CC(C)(C)OC(=O)N1CCN(c2ccnc3sc(C(N)=O)c(N)c23)CC1,198 to 203 °C
10,COc1cc2nc(N3CCN(C(=O)C=Cc4cccc(C(F)(F)F)c4)CC3)nc(N)c2cc1OC,225 to 227 °C
11,CC1(C(=O)Nc2ccc(N3CCOC3=O)c(C(F)(F)F)c2)CC1,146 to 147 °C
12,CC(C)Nc1cccnc1N1CCN(C(=O)c2ccc(C(=O)NC[C@H](C)O)cc2)CC1,135 °C
13,O[C@@H]1C=C[C@H](n2cnc3c(Cl)ncnc32)C1 (racemic),118 °C
14,CCCCC(CC)COC(=O)CSc1cc2c(cc1SCC(=O)OCC(CC)CCCC)C(=O)c1cc3ccccc3cc1C2=O (centres undefined),75 to 80 °C
15,Cn1nc(-c2c(Cl)cncc2Cl)nc1Cc1ccncc1,130 to 132 °C
16,CC(C)(C)c1cc(SCCSCCC(=O)O)cc(C(C)(C)C)c1O,57.5 °C
17,COc1ccc(C2Sc3c(ccc4ccccc34)N(CCN(C)C)C(=O)C2OC(=O)c2ccc(O)c(O)c2)cc1 (centres undefined),146 to 148 °C
18,COc1ccc(C2=C(c3ccccc3)CCCc3cc(OCc4ccccc4)ccc32)cc1,163 to 164 °C
19,CCOC(=O)c1cccc(-c2cc3c(O)ncnc3[nH]2)c1,> 250 °C
20,C[C@H]1[C@@H](O)C(F)(F)C(=O)N1c1ccc(C#N)c(C(F)(F)F)c1,128 to 131 °C
21,CN1C(=O)CC[C@]2(C)c3ccc(-c4cccc5ncccc45)cc3CC[C@@H]12,100 to 104 °C
22,CC(=O)Nc1nc(NCCSC(C)=O)n[nH]1,127 to 130 °C
23,Cc1nnc2ccc(-c3cccnc3)cn12,199 to 202 °C
24,CCOC(=O)COc1ccc([N+](=O)[O-])cc1C(F)(F)F,45 to 46 °C
